In patent US20230144898A1, “INHIBITOR OF ASPARTIC ACID SYNTHESIS IN TUMOR CELLS, INHIBITOR OF SPHEROID FORMATION OF TUMOR CELLS, INHIBITOR OF TUMOR CELL METASTASIS, ACTIVITY ENHANCER OF GLYCOLYTIC INHIBITOR, AND PHARMACEUTICAL COMPOSITION FOR SUPPRESSING AND/OR PREVENTING TUMOR METASTASIS” (CCI HOLDINGS INC., priority 2020, published 2023):
pIC50: −log10 of the molar value. In brackets after ≈: the same amount, converted by molar mass. Like-named read-outs stand apart in the source and are kept apart here. Blank lines part the entries; values can stand above or below the compound they belong to.

Assays:
[1] = system: B16F10 cells; experiment: Influence on anticancer action of 2-DG, cell viability (Test Example 3); type: cell-based, mouse; conditions: 2-DG 3 mM to 3 nM, negative control section (DMSO), 36 hours
Method: Specifically, to start with, B16F10 cells were seeded in a six-well plate in an amount of 0.5×10^5 cells/mL. Next, after 24 hours starting from seeding, 2-DG (concentration changed from 3 mM to 3 nM) was added and simultaneously treated with neopetasin at a concentration of 0.3 µM or 3 µM. Then, after 36 hours starting from this treatment, the cell viability was measured through the same method as in Test Example 1. Moreover, as a negative control section, DMSO was administered to perform the same experiment.

[2] = system: colon cancer cell lines; conditions: cited from earlier work
[3] = system: CMeCl cells (canine malignant melanoma cells); experiment: Proliferation inhibition, CMeC1 cells, trypan blue viable cell count (Test Example 1); type: cell-based; conditions: Cell line: CMeC1, incubated for 72 hours; for pIC50: read-out: IC50
Method: Four compounds of petasin, S-petasin, neopetasin and neo-S-petasin were evaluated for the inhibitory effect on proliferation of mouse or canine malignant melanoma cells by the following method.
B16F10 cells (mouse malignant melanoma cells) were obtained from JCRB Cell Bank (National Institutes of Biomedical Innovation, Health and Nutrition). In addition, CMeCl cells (canine malignant melanoma cells) were obtained from Veterinary Surgery Laboratory, Graduate School of Agricultural and Life Sciences, the University of Tokyo. Furthermore, A2058 cells (human malignant melanoma cells) were obtained from JCRB Cell Bank (National Institutes of Biomedical Innovation, Health and Nutrition). B16F10 cells were cultured in a 37° C. incubator (air/CO2 = 95/5 (v/v)) using Dulbecco’s modified Eagle’s medium (DMEM), CMeCl cells in RPMI (Roswell Park Memorial Institute) medium (RPMI1640), and A2058 cells in E-MEM medium.
First, CMeCl cells (canine malignant melanoma cells) were seeded in a six-well plate so as to be 0.5×10^5 cells/mL, and after 24 hours therefrom, each of the above four kinds of compounds (final concentration: 0.01 to 100 µg/mL) was suspended in the medium at a ratio of 0.1% and incubated for 72 hours. 72 hours after the start of culture, the number of viable cells was measured by trypan blue staining. At this time, viable cells (cell viability%) were calculated as the relative number of cells when the number of viable cells in a negative control section (DMSO treatment) was taken as 100%. Then, IC50 was calculated using a GraphPad Prism software system (GraphPad Software Inc.).

[4] = system: B16F10 cells (mouse malignant melanoma cells); conditions: cited from earlier work
[5] = system: mitochondria in B16F10 cells; experiment: MitoTracker Orange staining of mitochondria (Test Example 8); type: cell-based, mouse; conditions: neopetasin 3 µM, metformin 5000 µM; 48 hours
Method: In order to determine the action mechanism of neopetasin on inhibiting the aspartic acid synthesis in tumor cells, the influence of neopetasin on mitochondria in B16F10 cells was evaluated. Specifically, B16F10 cells treated with neopetasin (3 µM) for 48 hours through the same method as in Test Example 1 were stained using MitoTracker Orange (Thermo Fisher Scientific, MA, USA), which labels mitochondria depending on membrane potential. In addition, as a positive control section, in place of neopetasin, metformin known as a mitochondrial respiratory chain Complex I inhibitor (mitochondrial toxin) was used at a concentration of 5000 µM to perform the same experiment. Subsequently, the cells stained as described above were photographed with a fluorescence microscope (FIG. 9A). In addition, the relationship between fluorescence intensity of the cells and the distribution of the number of cells was measured using an image cytometer (Tali, Thermo Fisher Scientific, MA, USA) (FIG. 9B).

[6] = system: mitochondria in B16F10 cells; experiment: Electron microscope observation of treated cells (Test Example 8); type: cell-based, mouse; conditions: neopetasin 3 µM, metformin 5000 µM
Method: Following the above results, the cells respectively treated with neopetasin (3 µM) and metformin (5000 µM) in the above were observed using an electron microscope. Furthermore, DMSO was administered to the negative control section, and the same experiment was performed.

Compound: O=CC[C@@H](O)[C@H](O)[C@H](O)CO [2-DG, 2-deoxy-D-glucose, reference compound]
cell viability [1]: reduced in a concentration-dependent manner

pIC50 ([3]; Canis lupus familiaris, 72 h): 5.55
Compound: C=C(C)[C@@H]1C[C@@]2(C)C(=CC1=O)CC[C@@H](OC(=O)/C(C)=C\C)[C@@H]2C [Petasin, petasin]
migration and invasion of colon cancer cell lines [2]: suppressed migration and invasion
proliferation of colon cancer cell lines [2]: inhibited proliferation

IC50 (µg/mL) [3]: 0.755 µg/mL (≈ 2.26 µM)
pIC50 [3]: 5.65
Compound: C=C(C)[C@@H]1C[C@@]2(C)C(=CC1=O)CC[C@@H](OC(=O)/C=C\SC)[C@@H]2C [S-petasin, reference compound]

Compound: N.N.[Cl][Pt][Cl] [cisplatin]
IC50 for B16F10 cells (classical anticancer agent) [4]: 5 µg/mL

Compound: CN(C)C(=N)N=C(N)N [metformin, reference compound]
MitoTracker Orange fluorescence intensity [5]: enhanced fluorescence intensity
influence on mitochondria (electron microscope) [6]: the influence on mitochondria was mild

IC50 (µg/mL) [3]: 0.537 µg/mL
pIC50 [3]: 5.79
Compound: neo-S-petasin [reference compound]
